Source: patent US11090304B2 (Amgen Inc., priority 2018, dated 2021)

Experiments:
[1] = test system: Phosphorylation of ERK1/2 in MIA PaCa-2 cells; assay: Phospho-ERK1/2 MSD assay in MIA PaCa-2 cells; type: cell-based; settings: Homo sapiens, MIA PaCa-2, 2 h, read-out: p-ERK IC50 (2 h; MIA PaCa-2), 2 h compound treatment
Summary of the method: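 MSD electrochemiluminescence readout of phospho-ERK1/2 in whole-cell lysates, IC50 by 4-parameter logistic fit. Compound titrations were applied for 2 or 4 h at 37 °C, 5% CO2, followed by 10 ng/mL EGF stimulation for 10 min before lysis.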

[2] = target: GDP-bound KRAS protein (aa 1-169), containing both G12C and C118A amino acid substitutions (Homo sapiens, UniProt P01116, C118A/G12C); assay: Coupled nucleotide exchange assay (SOS-mediated, AlphaScreen); type: biochemical; settings: 5 min compound pre-incubation
GDP-bound KRAS protein (aa 1-169), containing both G12C and C118A amino acid substitutions, sequence (P01116 1-169 isoform P01116-2 G12C/C118A): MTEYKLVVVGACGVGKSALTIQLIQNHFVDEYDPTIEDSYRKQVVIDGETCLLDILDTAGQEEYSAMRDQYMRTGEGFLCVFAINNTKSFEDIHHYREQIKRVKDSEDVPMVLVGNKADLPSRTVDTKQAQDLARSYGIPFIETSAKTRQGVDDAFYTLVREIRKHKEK

IC50 [1]	Coupled exchange IC50 (5 min) [2]	Compound
303 nM	0.653 | nda μM	C=CC(=O)N1CCN(c2nc(=O)n(-c3c(CC)cncc3CC)c3nc(-c4ccccc4F)c(Cl)cc23)[C@@H](C)C1 [Example 55-22, 6-chloro-1-(3,5-diethyl-4-pyridinyl)-7-(2-fluorophenyl)-4-((2S)-2-methyl-4-(2-propenoyl)-1-piperazinyl)pyrido[2,3-d]pyrimidin-2(1H)-one]
215 nM	0.091 | nda μM	C=CC(=O)N1CCN(c2nc(=O)n(-c3c(O)cccc3C(C)C)c3nc(-c4ccccc4F)c(Cl)cc23)[C@@H](C)C1 [Example 55-26, 6-chloro-7-(2-fluorophenyl)-1-(2-hydroxy-6-(2-propanyl)phenyl)-4-((2S)-2-methyl-4-(2-propenoyl)-1-piperazinyl)pyrido[2,3-d]pyrimidin-2(1H)-one]
57 nM	0.03 | nda μM	C=CC(=O)N1CCN(c2nc(=O)n(-c3c(C(C)C)nc(OC)nc3C(C)C)c3nc(-c4ccccc4F)c(Cl)cc23)[C@@H](C)C1 [Example 55-37, 6-chloro-7-(2-fluorophenyl)-1-(2-methoxy-4,6-di(2-propanyl)-5-pyrimidinyl)-4-((2S)-2-methyl-4-(2-propenoyl)-1-piperazinyl)pyrido[2,3-d]pyrimidin-2(1H)-one]
271 nM	0.292 | nda μM	C=CC(=O)N1CCN(c2nc(=O)n(-c3c(C)ncnc3C(C)C)c3nc(-c4cc(F)ccc4F)c(Cl)cc23)[C@@H](C)C1 [Example 55-39, 6-chloro-7-(2,5-difluorophenyl)-1-(4-methyl-6-(2-propanyl)-5-pyrimidinyl)-4-((2S)-2-methyl-4-(2-propenoyl)-1-piperazinyl)pyrido[2,3-d]pyrimidin-2(1H)-one]
149 nM	0.1 | nda μM	C=CC(=O)N1CCN(c2nc(=O)n(-c3c(C)ncnc3C(C)C)c3nc(-c4cc(C)ccc4F)c(Cl)cc23)[C@@H](C)C1 [Example 55-40, 6-chloro-7-(2-fluoro-5-methylphenyl)-1-(4-methyl-6-(2-propanyl)-5-pyrimidinyl)-4-((2S)-2-methyl-4-(2-propenoyl)-1-piperazinyl)pyrido[2,3-d]pyrimidin-2(1H)-one]
908 nM	0.292 | nda μM	C=CC(=O)N1CCN(c2nc(=O)n(-c3ncnn3C(C)C)c3nc(-c4ccccc4F)c(Cl)cc23)[C@@H](C)C1 [Example 55-41, 6-chloro-7-(2-fluorophenyl)-4-((2S)-2-methyl-4-(2-propenoyl)-1-piperazinyl)-1-(1-(2-propanyl)-1H-1,2,4-triazol-5-yl)pyrido[2,3-d]pyrimidin-2(1H)-one]
70 nM	0.073 | nda μM	C=CC(=O)N1CCN(c2nc(=O)n(-c3c(CO)cccc3C(C)C)c3nc(-c4ccccc4F)c(Cl)cc23)[C@@H](C)C1 [Example 55-43, 6-chloro-7-(2-fluorophenyl)-1-(2-(hydroxymethyl)-6-(2-propanyl)phenyl)-4-((2S)-2-methyl-4-(2-propenoyl)-1-piperazinyl)pyrido[2,3-d]pyrimidin-2(1H)-one]
740 nM	0.433 | nda μM	C=CC(=O)N1CCN(c2nc(=O)n(-c3c(C)cccc3C3CC3)c3nc(-c4ccccc4F)c(Cl)cc23)[C@@H](C)C1 [Example 56-5, 6-chloro-1-(2-cyclopropyl-6-methylphenyl)-7-(2-fluorophenyl)-4-((2S)-2-methyl-4-(2-propenoyl)-1-piperazinyl)pyrido[2,3-d]pyrimidin-2(1H)-one]
160 nM	0.269 | nda μM	C=CC(=O)N1CCN(c2nc(=O)n(-c3ccccc3C(C)C)c3nc(-c4cc(OC)ccc4F)c(Cl)cc23)[C@@H](C)C1 [Example 56-9, 6-chloro-7-(2-fluoro-5-methoxyphenyl)-4-((2S)-2-methyl-4-(2-propenoyl)-1-piperazinyl)-1-(2-(2-propanyl)phenyl)pyrido[2,3-d]pyrimidin-2(1H)-one]
300 nM	0.74 | nda μM	C=CC(=O)N1CCN(c2nc(=O)n(-c3nccnc3C(C)C)c3nc(-c4ccccc4F)c(F)cc23)[C@@H](C)C1 [Example 57-2, 6-fluoro-7-(2-fluorophenyl)-4-((2S)-2-methyl-4-(2-propenoyl)-1-piperazinyl)-1-(3-(2-propanyl)-2-pyrazinyl)pyrido[2,3-d]pyrimidin-2(1H)-one]

More lines, now with the values behind:

Compound	IC50 [1]	Coupled exchange IC50 (5 min) [2]
C=CC(=O)N1CCN(c2nc(=O)n(-c3nccnc3C(C)(C)C)c3nc(-c4c(O)cccc4F)c(Cl)cc23)[C@@H](C)C1 [Example 55-23]	260 nM	0.208 | nda μM
C=CC(=O)N1CCN(c2nc(=O)n(-c3ncccc3C(=C)C)c3nc(-c4c(O)cccc4F)c(Cl)cc23)[C@@H](C)C1 [Example 55-24, 6-chloro-7-(2-fluoro-6-hydroxyphenyl)-4-((2S)-2-methyl-4-(2-propenoyl)-1-piperazinyl)-1-(3-(1-propen-2-yl)-2-pyridinyl)pyrido[2,3-d]pyrimidin-2(1H)-one]	74 nM	0.113 | nda μM
C=CC(=O)N1CCN(c2nc(=O)n(-c3c(CC)ncnc3CC)c3nc(-c4c(O)cccc4F)c(Cl)cc23)[C@@H](C)C1 [Example 55-31, 6-chloro-1-(4,6-diethyl-5-pyrimidinyl)-7-(2-fluoro-6-hydroxyphenyl)-4-((2S)-2-methyl-4-(2-propenoyl)-1-piperazinyl)pyrido[2,3-d]pyrimidin-2(1H)-one]	79 nM	0.098 | nda μM
C=CC(=O)N1CCN(c2nc(=O)n(-c3c(CC)ncnc3CC)c3nc(-c4ccc(F)cc4F)c(Cl)cc23)[C@@H](C)C1 [Example 55-35, 6-chloro-1-(4,6-diethyl-5-pyrimidinyl)-7-(2,4-difluorophenyl)-4-((2S)-2-methyl-4-(2-propenoyl)-1-piperazinyl)pyrido[2,3-d]pyrimidin-2(1H)-one]	252 nM	0.225 | nda μM
C=CC(=O)N1CCN(c2nc(=O)n(-c3ccccc3S(F)(F)(F)(F)F)c3nc(-c4c(O)cccc4F)c(Cl)cc23)[C@@H](C)C1 [Example 56-1, 6-Chloro-7-(2-fluoro-6-hydroxy-phenyl)-4-[(2S)-2-methyl-4-prop-2-enoyl-piperazin-1-yl]-1-[2-(pentafluoro-λ^6-sulfanyl)phenyl]pyrido[2,3-d]pyrimidin-2-one]	359 nM	0.149 | nda μM
C=CC(=O)N1CCN(c2nc(=O)n(-c3c(C(C)C)ncnc3C(C)C)c3nc(-c4c(N)cccc4F)c(Cl)cc23)[C@@H](C)C1 [Example 56-2, 7-(2-amino-6-fluorophenyl)-6-chloro-1-(4,6-di(2-propanyl)-5-pyrimidinyl)-4-((2S)-2-methyl-4-(2-propenoyl)-1-piperazinyl)pyrido[2,3-d]pyrimidin-2(1H)-one]	52 nM	0.061 | nda μM
C=CC(=O)N1CCN(c2nc(=O)n(-c3ccccc3C(C)C)c3nc(-c4cc(N)ccc4Br)c(Cl)cc23)[C@@H](C)C1 [Example 56-6, 7-(5-amino-2-bromophenyl)-6-chloro-4-((2S)-2-methyl-4-(2-propenoyl)-1-piperazinyl)-1-(2-(2-propanyl)phenyl)pyrido[2,3-d]pyrimidin-2(1H)-one]	84 nM	0.125 | nda μM
C=CC(=O)N1CCN(c2nc(=O)n(-c3ccccc3C(C)C)c3nc(-c4cc(N)ccc4Cl)c(Cl)cc23)[C@@H](C)C1 [Example 56-7, 7-(5-amino-2-chlorophenyl)-6-chloro-4-((2S)-2-methyl-4-(2-propenoyl)-1-piperazinyl)-1-(2-(2-propanyl)phenyl)pyrido[2,3-d]pyrimidin-2(1H)-one]	69 nM	0.11 | nda μM
C=CC(=O)N1CCN(c2nc(=O)n(-c3ccccc3C(C)C)c3nc(-c4ccccc4OC(F)F)c(Cl)cc23)[C@@H](C)C1 [Example 56-10, 6-chloro-7-(2-(difluoromethoxy)phenyl)-4-((2S)-2-methyl-4-(2-propenoyl)-1-piperazinyl)-1-(2-(2-propanyl)phenyl)pyrido[2,3-d]pyrimidin-2(1H)-one]	260 nM	0.332 | nda μM
C=CC(=O)N1CCN(c2nc(=O)n(-c3c(C)ccnc3CC)c3nc(-c4c(O)cccc4F)c(F)cc23)[C@@H](C)C1 [Example 57-1, 1-(2-Ethyl-4-methyl-3-pyridinyl)-6-fluoro-7-(2-fluoro-6-hydroxyphenyl)-4-((2S)-2-methyl-4-(2-propenoyl)-1-piperazinyl)pyrido[2,3-d]pyrimidin-2(1H)-one]	171 nM	0.835 | nda μM
C=CC(=O)N1CCN(c2nc(=O)n(-c3nccnc3C(C)C)c3nc(-c4c(O)cccc4F)c(F)cc23)[C@@H](C)C1 [Example 57-3, 6-fluoro-7-(2-fluoro-6-hydroxyphenyl)-4-((2S)-2-methyl-4-(2-propenoyl)-piperazinyl)-1-(3-(2-propanyl)-2-pyrazinyl)pyrido[2,3-d]pyrimidin-2(1H)-one]	241 nM	0.664 | nda μM
C=CC(=O)N1CCN(c2nc(=O)n(-c3c(C(C)C)ncnc3C(C)C)c3nc(-c4c(O)cccc4F)c(F)cc23)[C@@H](C)C1 [Example 57-4, 1-(4,6-di(2-propanyl)-5-pyrimidinyl)-6-fluoro-7-(2-fluoro-6-hydroxyphenyl)-4-((2S)-2-methyl-4-(2-propenoyl)-1-piperazinyl)pyrido[2,3-d]pyrimidin-2(1H)-one]	61 nM	0.1 | nda μM
